Measurements published in the supplement of paper PMC10307832.

Legend:
Assay in all cases: relative viability (nuclei count vs DMSO), 5 days (fraction); higher = more cells survive
201T = tested on: 201T
Outline: (§1)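 For relative viability, nuclei counts in treated wells were divided by those in vehicle wells. Lung cancer cell lines had been pin-tool dosed in 1536-well plates the day after seeding and cultured for 5 days, then fixed and stained in one step (final 0.05% Triton X-100, 1% formaldehyde, 1 ug/ml Hoechst) and imaged at 4×. Doses were one drug alone or a fixed anchor-drug dose plus five library-drug doses (not always all listed) in √10 steps, and values are duplicate-plate medians.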

A-427 = tested on: A-427
Outline: as §1

COR-L23 = tested on: COR-L23
Outline: as §1

H3255 = tested on: H3255
Outline: as §1

HCC-44 = tested on: HCC-44
Outline: as §1

LC-2-ad = tested on: LC-2-ad
Outline: as §1

LCLC-103H = tested on: LCLC-103H
Outline: as §1

LCLC-97TM1 = tested on: LCLC-97TM1
Outline: as §1

LK-2 = tested on: LK-2
Outline: as §1

LU99A = tested on: LU99A
Outline: as §1

NCI-H1563 = tested on: NCI-H1563
Outline: as §1

NCI-H1650 = tested on: NCI-H1650
Outline: as §1

NCI-H1793 = tested on: NCI-H1793
Outline: as §1

NCI-H2228 = tested on: NCI-H2228
Outline: as §1

NCI-H2347 = tested on: NCI-H2347
Outline: as §1

NCI-H23 = tested on: NCI-H23
Outline: as §1

NCI-H460 = tested on: NCI-H460
Outline: as §1

NCI-H596 = tested on: NCI-H596
Outline: as §1

PC-14 = tested on: PC-14
Outline: as §1

SW 1573 = tested on: SW 1573
Outline: as §1

SW 900 = tested on: SW 900
Outline: as §1

Q: What does the source list for `COc1cc2nccc(Oc3ccc(NC(=O)Nc4cc(C)on4)c(Cl)c3)c2cc1OC` [Tivozanib] + Nc1nc2[nH]cc(CCc3ccc(C(=O)N[C@@H](CCC(=O)O)C(=O)O)cc3)c2c(=O)[nH]1 [Pemetrexed] (partner 0.2 µM)?
A: relative viability (201T; first compound 0.005 µM): 0.314; relative viability (201T; first compound 0.01581 µM): 0.319; relative viability (201T; first compound 0.05 µM): 0.351; relative viability (201T; first compound 0.1581 µM): 0.351; relative viability (201T; first compound 0.5 µM): 0.367; relative viability (A-427; first compound 0.005 µM): 0.973; relative viability (A-427; first compound 0.01581 µM): 0.952; relative viability (A-427; first compound 0.05 µM): 0.961; relative viability (A-427; first compound 0.1581 µM): 0.926; relative viability (A-427; first compound 0.5 µM): 0.979; relative viability (COR-L23; first compound 0.005 µM): 0.193; relative viability (COR-L23; first compound 0.01581 µM): 0.192; relative viability (COR-L23; first compound 0.05 µM): 0.203; relative viability (COR-L23; first compound 0.1581 µM): 0.206; relative viability (COR-L23; first compound 0.5 µM): 0.199; relative viability (H3255; first compound 0.005 µM): 0.545; relative viability (H3255; first compound 0.01581 µM): 0.563; relative viability (H3255; first compound 0.05 µM): 0.583; relative viability (H3255; first compound 0.1581 µM): 0.55; relative viability (H3255; first compound 0.5 µM): 0.547; relative viability (HCC-44; first compound 0.005 µM): 0.651; relative viability (HCC-44; first compound 0.01581 µM): 0.62; relative viability (HCC-44; first compound 0.05 µM): 0.687; relative viability (HCC-44; first compound 0.1581 µM): 0.802; relative viability (HCC-44; first compound 0.5 µM): 0.627; relative viability (LC-2-ad; first compound 0.005 µM): 0.245; relative viability (LC-2-ad; first compound 0.01581 µM): 0.289; relative viability (LC-2-ad; first compound 0.05 µM): 0.274; relative viability (LC-2-ad; first compound 0.1581 µM): 0.286; relative viability (LC-2-ad; first compound 0.5 µM): 0.245; relative viability (LCLC-103H; first compound 0.005 µM): 0.453; relative viability (LCLC-103H; first compound 0.01581 µM): 0.508; relative viability (LCLC-103H; first compound 0.05 µM): 0.49; relative viability (LCLC-103H; first compound 0.1581 µM): 0.459; relative viability (LCLC-103H; first compound 0.5 µM): 0.46; relative viability (LCLC-97TM1; first compound 0.005 µM): 0.183; relative viability (LCLC-97TM1; first compound 0.01581 µM): 0.178; relative viability (LCLC-97TM1; first compound 0.05 µM): 0.157; relative viability (LCLC-97TM1; first compound 0.1581 µM): 0.172; relative viability (LCLC-97TM1; first compound 0.5 µM): 0.148; relative viability (LK-2; first compound 0.005 µM): 0.254; relative viability (LK-2; first compound 0.01581 µM): 0.258; relative viability (LK-2; first compound 0.05 µM): 0.289; relative viability (LK-2; first compound 0.1581 µM): 0.203; relative viability (LK-2; first compound 0.5 µM): 0.197; relative viability (LU99A; first compound 0.005 µM): 0.161; relative viability (LU99A; first compound 0.01581 µM): 0.176; relative viability (LU99A; first compound 0.05 µM): 0.19; relative viability (LU99A; first compound 0.1581 µM): 0.22; relative viability (LU99A; first compound 0.5 µM): 0.193; relative viability (NCI-H1563; first compound 0.005 µM): 0.657; relative viability (NCI-H1563; first compound 0.01581 µM): 0.887; relative viability (NCI-H1563; first compound 0.05 µM): 0.698; relative viability (NCI-H1563; first compound 0.1581 µM): 0.594; relative viability (NCI-H1563; first compound 0.5 µM): 0.728; relative viability (NCI-H1650; first compound 0.005 µM): 0.362; relative viability (NCI-H1650; first compound 0.01581 µM): 0.342; relative viability (NCI-H1650; first compound 0.05 µM): 0.384; relative viability (NCI-H1650; first compound 0.1581 µM): 0.309; relative viability (NCI-H1650; first compound 0.5 µM): 0.354; relative viability (NCI-H1793; first compound 0.005 µM): 0.643; relative viability (NCI-H1793; first compound 0.01581 µM): 0.854; relative viability (NCI-H1793; first compound 0.05 µM): 1.04; relative viability (NCI-H1793; first compound 0.5 µM): 0.999; relative viability (NCI-H2228; first compound 0.005 µM): 0.31; relative viability (NCI-H2228; first compound 0.01581 µM): 0.32; relative viability (NCI-H2228; first compound 0.05 µM): 0.369; relative viability (NCI-H2228; first compound 0.1581 µM): 0.346; relative viability (NCI-H2228; first compound 0.5 µM): 0.315; relative viability (NCI-H2347; first compound 0.005 µM): 0.4; relative viability (NCI-H2347; first compound 0.01581 µM): 0.458; relative viability (NCI-H2347; first compound 0.05 µM): 0.388; relative viability (NCI-H2347; first compound 0.1581 µM): 0.427; relative viability (NCI-H2347; first compound 0.5 µM): 0.487; relative viability (NCI-H23; first compound 0.005 µM): 0.588; relative viability (NCI-H23; first compound 0.01581 µM): 0.771; relative viability (NCI-H23; first compound 0.05 µM): 0.787; relative viability (NCI-H23; first compound 0.5 µM): 0.54; relative viability (NCI-H460; first compound 0.005 µM): 0.0664; relative viability (NCI-H460; first compound 0.01581 µM): 0.0619; relative viability (NCI-H460; first compound 0.05 µM): 0.0637; relative viability (NCI-H460; first compound 0.1581 µM): 0.063; relative viability (NCI-H460; first compound 0.5 µM): 0.0689; relative viability (NCI-H596; first compound 0.005 µM): 0.492; relative viability (NCI-H596; first compound 0.01581 µM): 0.502; relative viability (NCI-H596; first compound 0.05 µM): 0.51; relative viability (NCI-H596; first compound 0.5 µM): 0.508; relative viability (PC-14; first compound 0.005 µM): 0.124; relative viability (PC-14; first compound 0.01581 µM): 0.138; relative viability (PC-14; first compound 0.05 µM): 0.129; relative viability (PC-14; first compound 0.1581 µM): 0.155; relative viability (PC-14; first compound 0.5 µM): 0.115; relative viability (SW 1573; first compound 0.005 µM): 0.761; relative viability (SW 1573; first compound 0.01581 µM): 0.766; relative viability (SW 1573; first compound 0.05 µM): 0.805; relative viability (SW 1573; first compound 0.1581 µM): 0.666; relative viability (SW 1573; first compound 0.5 µM): 0.775; relative viability (SW 900; first compound 0.005 µM): 0.463; relative viability (SW 900; first compound 0.01581 µM): 0.465; relative viability (SW 900; first compound 0.05 µM): 0.507; relative viability (SW 900; first compound 0.5 µM): 0.493
